Source: PubChem BioAssay AID1845219 (Molecular Pharmacology Branch, DTP, NCI, 2023)
“And” between values parts separate entries of the source, which are not always exact repeats. Identical values can stand only once.

Tested on: SYO-1 tumor spheroids, viability % test/control
Assay: Anticancer human tumor SYO-1 cell line growth inhibition;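 also: spheroids exposed to agents for 7 days before viability read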;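 as to viability, T/C: 100% = DMSO vehicle control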
Conditions: spheroids with HUVEC and MSC; for viability, T/C: stronger effect = lower value
How it was run: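 Complex spheroids of malignant cells with endothelial cells and mesenchymal stem cells; agents alone or combined, from near clinical Cmax (or 10 microM if unknown) down in half-log steps, 0.25% DMSO final.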

[1] = curve of first compound, second compound 1 µM
[2] = curve of first compound, second compound 3.16 µM
[3] = curve of first compound, second compound 10 µM
[4] = curve of first compound, second compound 31.6 µM
[5] = curve of first compound, second compound 100 µM
[6] = second compound 1 µM, first compound 0.0316 µM
[7] = second compound 1 µM, first compound 0.1 µM
[8] = second compound 1 µM, first compound 0.316 µM
[9] = second compound 1 µM, first compound 1 µM
[10] = second compound 1 µM, first compound 3.16 µM
[11] = second compound 1 µM, first compound 10 µM
[12] = second compound 3.16 µM, first compound 0.0316 µM
[13] = second compound 3.16 µM, first compound 0.1 µM
[14] = second compound 3.16 µM, first compound 0.316 µM
[15] = second compound 3.16 µM, first compound 1 µM
[16] = second compound 3.16 µM, first compound 3.16 µM
[17] = second compound 3.16 µM, first compound 10 µM
[18] = second compound 10 µM, first compound 0.0316 µM
[19] = second compound 10 µM, first compound 0.1 µM
[20] = second compound 10 µM, first compound 0.316 µM
[21] = second compound 10 µM, first compound 1 µM
[22] = second compound 10 µM, first compound 3.16 µM
[23] = second compound 10 µM, first compound 10 µM
[24] = second compound 31.6 µM, first compound 0.0316 µM
[25] = second compound 31.6 µM, first compound 0.1 µM
[26] = second compound 31.6 µM, first compound 0.316 µM
[27] = second compound 31.6 µM, first compound 1 µM
[28] = second compound 31.6 µM, first compound 3.16 µM
[29] = second compound 31.6 µM, first compound 10 µM
[30] = second compound 100 µM, first compound 0.0316 µM
[31] = second compound 100 µM, first compound 0.1 µM
[32] = second compound 100 µM, first compound 0.316 µM
[33] = second compound 100 µM, first compound 1 µM
[34] = second compound 100 µM, first compound 3.16 µM
[35] = second compound 100 µM, first compound 10 µM

COc1cc(C)[nH]c(=O)c1CN1CCc2c(Cl)cc(C(OC)C3COC3)c(Cl)c2C1=O (centres undefined) + Cn1nnc2c(C(N)=O)ncn2c1=O
IC50 [1]: > 10000 nM | IC50 [2]: > 10000 nM | IC50 [3]: > 10000 nM | IC50 [4]: > 10000 nM | IC50 [5]: 697 nM | viability, T/C [6]: 110% | viability, T/C [7]: 108% | viability, T/C [8]: 97.7% | viability, T/C [9]: 86.7% | viability, T/C [10]: 81.1% | viability, T/C [11]: 73.8% | viability, T/C [12]: 110% | viability, T/C [13]: 107% | viability, T/C [14]: 99.5% | viability, T/C [15]: 89.1% | viability, T/C [16]: 77% | viability, T/C [17]: 67.8% | viability, T/C [18]: 108% | viability, T/C [19]: 107% | viability, T/C [20]: 97.6% | viability, T/C [21]: 89.7% | viability, T/C [22]: 76.2% | viability, T/C [23]: 71.6% | viability, T/C [24]: 119% | viability, T/C [25]: 111% | viability, T/C [26]: 95.1% | viability, T/C [27]: 80.8% | viability, T/C [28]: 69.6% | viability, T/C [29]: 62.4% | viability, T/C [30]: 106% | viability, T/C [31]: 102% | viability, T/C [32]: 69.7% | viability, T/C [33]: 40.5% | viability, T/C [34]: 41.7% | viability, T/C [35]: 35.6%

[2H]c1nc(C)nc([2H])c1-c1cc(NC[C@@H](C)c2cccc3c(C(=O)NC)ccnc23)ncn1 + Cn1nnc2c(C(N)=O)ncn2c1=O
IC50 [1]: > 10000 nM | IC50 [2]: > 10000 nM | IC50 [3]: > 10000 nM | IC50 [4]: > 10000 nM | IC50 [5]: > 10000 nM | viability, T/C [6]: 105% | viability, T/C [7]: 105% | viability, T/C [8]: 102% | viability, T/C [9]: 98.9% | viability, T/C [10]: 93.3% | viability, T/C [11]: 83% | viability, T/C [12]: 110% | viability, T/C [13]: 113% | viability, T/C [14]: 105% | viability, T/C [15]: 96.5% | viability, T/C [16]: 90% | viability, T/C [17]: 84.8% | viability, T/C [18]: 109% | viability, T/C [19]: 106% | viability, T/C [20]: 106% | viability, T/C [21]: 96.1% | viability, T/C [22]: 90.2% | viability, T/C [23]: 88.4% | viability, T/C [24]: 115% | viability, T/C [25]: 109% | viability, T/C [26]: 110% | viability, T/C [27]: 102% | viability, T/C [28]: 96.4% | viability, T/C [29]: 94% | viability, T/C [30]: 113% | viability, T/C [31]: 115% | viability, T/C [32]: 111% | viability, T/C [33]: 110% | viability, T/C [34]: 93.7% | viability, T/C [35]: 94.3%

COc1cc(C)[nH]c(=O)c1CN1CCc2c(Cl)cc(C(OC)C3COC3)c(Cl)c2C1=O (centres undefined) + CC[C@@]1(O)C(=O)OCc2c1cc1n(c2=O)Cc2cc3c(CN(C)C)c(O)ccc3nc2-1
IC50 (curve of first compound, second compound 0.003 µM): 777 nM | IC50 (curve of first compound, second compound 0.00949 µM): < 31.6 nM | IC50 (curve of first compound, second compound 0.03 µM): < 31.6 nM | IC50 (curve of first compound, second compound 0.0949 µM): < 31.6 nM | IC50 (curve of first compound, second compound 0.3 µM): < 31.6 nM | viability, T/C (second compound 0.003 µM, first compound 0.0316 µM): 99.8% | viability, T/C (second compound 0.003 µM, first compound 0.1 µM): 96.1% | viability, T/C (second compound 0.003 µM, first compound 0.316 µM): 71.5% | viability, T/C (second compound 0.003 µM, first compound 1 µM): 44.5% | viability, T/C (second compound 0.003 µM, first compound 3.16 µM): 33.9% | viability, T/C (second compound 0.003 µM, first compound 10 µM): 32.8% | viability, T/C (second compound 0.00949 µM, first compound 0.0316 µM): 22.7% | viability, T/C (second compound 0.00949 µM, first compound 0.1 µM): 18.1% | viability, T/C (second compound 0.00949 µM, first compound 0.316 µM): 8.42% | viability, T/C (second compound 0.00949 µM, first compound 1 µM): 5.82% | viability, T/C (second compound 0.00949 µM, first compound 3.16 µM): 5.77% | viability, T/C (second compound 0.00949 µM, first compound 10 µM): 4.94% | viability, T/C (second compound 0.03 µM, first compound 0.0316 µM): 1.81% | viability, T/C (second compound 0.03 µM, first compound 0.1 µM): 2.29% | viability, T/C (second compound 0.03 µM, first compound 0.316 µM): 2.26% | viability, T/C (second compound 0.03 µM, first compound 1 µM): 2.14% | viability, T/C (second compound 0.03 µM, first compound 3.16 µM): 2.28% | viability, T/C (second compound 0.03 µM, first compound 10 µM): 2.42% | viability, T/C (second compound 0.0949 µM, first compound 0.0316 µM): 1.63% | viability, T/C (second compound 0.0949 µM, first compound 0.1 µM): 1.59% | viability, T/C (second compound 0.0949 µM, first compound 0.316 µM): 1.59% | viability, T/C (second compound 0.0949 µM, first compound 1 µM): 1.68% | viability, T/C (second compound 0.0949 µM, first compound 3.16 µM): 1.72% | viability, T/C (second compound 0.0949 µM, first compound 10 µM): 1.9% | viability, T/C (second compound 0.3 µM, first compound 0.0316 µM): 2% | viability, T/C (second compound 0.3 µM, first compound 0.1 µM): 2.17% | viability, T/C (second compound 0.3 µM, first compound 0.316 µM): 2.06% | viability, T/C (second compound 0.3 µM, first compound 1 µM): 1.88% | viability, T/C (second compound 0.3 µM, first compound 3.16 µM): 1.89% | viability, T/C (second compound 0.3 µM, first compound 10 µM): 2.12%

COc1cc(C)[nH]c(=O)c1CN1CCc2c(Cl)cc(C(OC)C3COC3)c(Cl)c2C1=O (centres undefined)
viability, T/C (compound 0.0316 µM): 114% and 106% (2×) | viability, T/C (compound 0.1 µM): 110% and 115% and 112% | viability, T/C (compound 0.316 µM): 95.1% and 101% and 106% | viability, T/C (compound 1 µM): 78.1% and 82.5% and 90.5% | viability, T/C (compound 3.16 µM): 67.7% and 80% and 82.7% | viability, T/C (compound 10 µM): 59.9% and 73.2% and 75.6% | IC50 (curve of compound): > 10000 nM

Cn1ncnc1[C@H]1c2n[nH]c(=O)c3cc(F)cc(c23)N[C@@H]1c1ccc(F)cc1
viability, T/C (compound 0.00949 µM): 81.1% and 79.7% and 87.3% | viability, T/C (compound 0.03 µM): 29.5% and 23.3% and 18.3% | viability, T/C (compound 0.0949 µM): 4.75% and 5.28% and 5.09% | viability, T/C (compound 0.3 µM): 2.61% and 2.85% and 2.82% | viability, T/C (compound 0.949 µM): 1.54% and 2.38% and 1.48% | viability, T/C (compound 3 µM): 1.36% and 1.92% and 1.26% | IC50 (curve of compound): 19 nM and 17.4 nM and 17.7 nM
